Measured values reported in patent US20110294728A1, “Antiviral Polypeptides” (priority 2008, published 2011).
Like-named read-outs stand apart in the source and are kept apart here. Where no end group is shown, it is not given here.

Columns and labels:
[1] = tested on: uninfected PHA-P-activated PBMC; assay: Cytotoxicity, MTT assay in uninfected PBMC; assay type: cell-based
Procedure: The anti-HIV activities of the peptides were assayed according to the methods described in Roisin et al. (2004). Phytohemagglutinin-P(PHA-P)-activated peripheral blood mononuclear cells (PBMC) treated by increasing concentrations of peptide (from 100 to 0.1 nM), one hour later, were infected with hundred 50% tissue culture infectious doses (TCID50) per 100,000 cells of the HIV-1-LAI strain (Barre-Sinoussi et al., 1983). This virus was amplified in vitro on PHA-P-activated PBMC. Viral stock was titrated using PHA-P-activated PBMC, and 50% TCID50 were calculated using Kärber's formula (Kärber, 1931). Samples were maintained throughout the culture, and cell supernatants were collected at day 7 post-infection and stored at −20° C. Viral replication was measured by quantifying reverse transcriptase (RT) activity in cell culture supernatants. In parallel, cytotoxicity of the compounds was evaluated in uninfected PHA-P-activated PBMC by colorimetric 3-(4-5 dimethylthiazol-2-yl)2,5diphenyl tetrazolium bromite (MTT) assay on day 7 (as described in Mossmann, 1983). Experiments were performed in triplicate and repeated with another blood donor. […]

HeLa cells = assay: Cellular uptake of FITC-labelled peptide, fluorescence microscopy; assay type: cell-based; details: for entry of free peptide into cells: peptide alone, without Pep-1
Procedure: HeLa cells were cultured in Dulbecco's modified Eagle's medium (DMEM) supplemented with 10% fetal calf serum at 37° C. in a humidified atmosphere containing 5% CO2.). H9 cell lines (ATCC number: HTB-176) were stably transfected with pNL4.3 V−R+plasmid (AIDS Research Reference Reagent Program, National Institutes of Health (NIH), USA) and therefore expressed in a constitutive manner all HIV-1 proteins but Env encoded proteins. They were cultured in RPMI-1640 medium supplemented with 2 mM glutamine, 10% (w/v) foetal calf serum (FCS), 1% antibiotics (streptomycin […], penicillin, 10 000 IU/ml), as well as G418 1 mg/ml. Cells were grown on glass coverslips to 75% confluency, then transfected with pcDNA3-p66RT plasmid (this plasmid contains the 66 subunit of HIV-1 Reverse Transcriptase cloned in pcDNA3.1 (+) vector (Invitrogen, USA), using HindIII and BamHI restriction site) using Lipofectamine 2000 reagent according to manufacturer' instructions (Invitrogen). Hela cells were subsequently cultured for 32 h, before incubation with FITC-PAW or FITC-PAW/Pep-1 (complex obtained at a molar ratio 1/10) for 1 h. Coverslips were extensively rinsed with PBS and cells were fixed in 4% paraformaldehyde for […] and permeabilized in 0.2% Triton. After saturation in PBS supplemented with bovine serum albumine 1% for 1 h, cells were incubated overnight with monoclonal 8C4 anti-HIV-1 RT antibody (AIDS Research Reference Reagent Program, NIH) (diluted 1:100 in PBS-BSA 1%), followed by Alexa-555 anti-mouse (Molecular Probes).
Immunofluorescence detection of HIV-1 RT and FITC-PAW was performed by epifluorescence microscopy using a PL APO 1.4 oil PH3 objective on a LEICA DMRA 1999 microscope. 3D reconstitution of the 20 frames realized from z stacking was performed using Imaris 6.0 software.
Cells were grown on acid-treated glass coverslips to 60% confluence. Once rinsed with PBS, cells were overlaid with preformed complexes and incubated for 40 minutes at 37° C. Cells were then rinsed twice with PBS and fixed […] at Room Temperature) (RT° in Paraformaldehyde 4%, and washed three times in PBS+2% BSA. They were then permeabilised by incubation 10 min RT° in PBS+0.5% Triton X-100, washed again 3 times in PBS+2% BSA. After blocking 20 min in the same solution, the coverslips were placed in a humid chamber, overlaid with 75 μl of primary antibody against Integrase, and incubated for 2 h at 37° C. Coverslips were then rinced once with PBS and incubated with 75 μl of anti rabbit antibody diluted 1/10000 in PBS. After immobilisation on the cover using Prolong Gold antifade reagent, cellular localization of Integrase as well as FITC-labelled peptides was monitored by fluorescence microscopy, using a PL APO 1.4 oil PH3 objective on a LEICA DMRA 1999 microscope. […]

HIV-1 RT [2] = target: T1, HIV-1 RT (Human immunodeficiency virus type 1 group M subtype B, UniProt P03366); assay: RT dissociation kinetics with bis-ANS, stopped flow; details: read-out: dissociation rate constant kdis of RT
T1 construct: The heterodimeric p66/p51 RT was eluted with an imidazole gradient; p66 and p51 derived from p66 by proteolytic cleavage of the C-terminal RNAse H domain; made in house; host or cells: E. coli (M15 for the His-tagged subunits)
Procedure: Dissociation kinetics of HIV-1 RT were monitored by using 4,4′-Bis(1-anilinonaphthalene 8-sulfonate (bis-ANS) as extrinsic probe. Changes in bis-ANS fluorescence provide a good signal to probe variation in the exposure of the hydrophobic regions associated to RT dissociation in a time-dependent manner. 0.5 μM of RT was dissociated in presence of 0.8 μM of bis-ANS, by adding 10% acetonitrile in the absence or in the presence of 10 μM PAW. Kinetics of dissociation were monitored by following fluorescence resonance energy transfer between tryptophan residues of RT and bis-ANS. Excitation of RT-Trp residues was performed at 290 nm and the increase of bis-ANS fluorescence emission at 490 nm was detected through a 420 nm cut-off filter. Data acquisition and analysis were performed using KinetAsyst 3 software (Hi-Tech Scientific, Salisbury, England-UK) and traces were fitted according to a single exponential equation.

HIV-1 RT [3] = target: T1, HIV-1 RT; assay: biochemical
Procedure: RNA-dependent-DNA RT-polymerase activity was measured in a standard reaction assay using poly(rA)-(dT)15 as template/primer as described in Restle et al. (1990). Ten microliters of reverse transcriptase (RT) at 20 nM was incubated at 37° C. for 30 min with 20 μL of reaction buffer (50 mM Tris, pH 8.0, 80 mM KCl, 6 mM MgCl2, 5 mM DTT, 0.15 μM poly(rA-dT), 15 μM dTTP, 0.3 μCi 3H-dTTP). For peptide evaluation, HIV-1 RT was incubated with increasing concentrations of peptide inhibitors for […], and polymerase reaction was initiated by adding reaction buffer. Reactions were stopped by precipitation of nucleic acids with 5 ml of 20% trichloroacetic acid (TCA) solution for 2 h on ice, then filtered using a multiwell-sample collector (Millipore), and washed with 5% TCA solution. Filters were dried at 55° C. for 30 min and radionucleotide incorporation was determined by liquid scintillation spectrometry.
A series of peptides have been derived from Pep-A sequence (SEQ ID NO: 28), which is derived from HIV-1 reverse transcriptase. First, P1 peptide (SEQ ID NO: 1) was obtained by removing the N-terminal arginine of Pep-A. Then, additional peptides were generated by performing an alanine scan on P1. P1-derived peptides were evaluated using a standard polymerase RT assay. Reported data correspond to the mean of three separate experiments.

heterodimeric RT = target: T2, heterodimeric RT (Human immunodeficiency virus type 1 group M subtype B, UniProt P03366); assay: Steady-state fluorescence titration of FITC-PAW with RT; set-up: species or system HIV-1; details: 200 nM FITC-PAW titrated with RT; read-out: dissociation constant (Kd), binding to heterodimeric RT
T2 construct: The heterodimeric p66/p51 RT was eluted with an imidazole gradient; p66 and p51 derived from p66 by proteolytic cleavage of the C-terminal RNAse H domain; made in house; host or cells: E. coli (M15 for the His-tagged subunits)
Procedure: (§1) Fluorescence experiments were performed in buffer containing 50 mM Tris-HCl, pH 8.0, 50 mM KCl, 10 mM MgCl2 and 1 mM DTT, at 25° C., using a SPEX-PTI spectrofluorimeter in a 1 cm path-length quartz cuvette, with a band-pass of 2 nm for excitation and emission, respectively. Excitation was performed at 492 nm and emission spectra were recorded from 500 to 600 nm. According fluorescence experiments, a fixed concentration of FAM-labelled (19/36) p/t (50 nM) or of FITC-PAW (200 nM) was titrated with increasing protein concentrations from 5 nM to 1 μM. Data were fitted as described in Agopian et al. (2007) and Rittinger et al. (1995), using a quadratic equation (GraFit, Erithacus Software).

RT:p/t = target: T3, RT:p/t (Human immunodeficiency virus type 1 group M subtype B, UniProt P03366); assay: Steady-state fluorescence titration, PAW binding to RT:p/t; set-up: species or system HIV-1
T3 construct: The heterodimeric p66/p51 RT was eluted with an imidazole gradient; p66 and p51 derived from p66 by proteolytic cleavage of the C-terminal RNAse H domain; made in house; host or cells: E. coli (M15 for the His-tagged subunits)
Procedure: as §1

HIV-1 p51 = target: T4, HIV-1 p51 (Human immunodeficiency virus type 1 group M subtype B, UniProt P03366); assay: Size exclusion chromatography of p51 dimerization; details: p51 3.5 μM, FITC-labelled PAW 20 μM, 1 h
T4 construct: His; made in house; host or cells: E. coli M15
Procedure: Chromatography was performed using one (Phenomenex 53000) or two HPLC columns in series (Phenomenex 53000 followed by Phenomenex 52000; both 7.5 mm×300 mm). Samples containing 3 to 10 μM of RT or p51 were applied onto one or two HLPC columns and eluted with 200 mM potassium phosphate (pH: 7.0) at a flow rate of 0.5 ml·min^−1 (5).

HIV-1 integrase [4] = target: T5, HIV-1 integrase (Human immunodeficiency virus type 1 group M subtype B, UniProt P04585); assay: IN 3′-processing activity, gel-electrophoresis procedure; assay type: biochemical; details: read-out: IC50 3′-proc
T5 construct: Integrase is a 32 kDA viral protein that is biologically active under a multimeric form
Procedure: In order to verify the influence of the fluorescent probe attached to PAW on the peptide-integrase interaction, a standard gel-electrophoresis procedure (as described in Smolov et al., 2006) was carried out to examine the IN 3′-processing activity as a function of either unlabeled or fluorescein-labeled PAW concentration.

HIV-1 integrase [5] = target: T6, HIV-1 integrase (Human immunodeficiency virus type 1 group M subtype B, UniProt P12497); assay: Integrase pull-down with CNBr Sepharose beads; assay type: binding; details: H9 or HeLa HA-IN cell lysates, western blotting
T6 construct: expressed in transfected cells; host or cells: H9 cells with pNL4.3 V-R+; HeLa cells stably expressing HA-tagged IN
Procedure: Peptides were resuspended in buffer A (1 mg/ml), sonicated 4 min, and incubated with 500 μl (gel volume) of activated CNBr-activated Sepharose 4B sepharose© beads at 4° C. overnight. After centrifugation, supernatants were removed and the beads were incubated with Glycine pH.8 for 2 hours at 4° C. with gentle stirring. The sedimented Sepharose beads were then washed in 0.1 M Sodium Acetate buffer (pH 4), 0.5 M Bicarbonate buffer, and finally in PBS, three times each. The peptides bound to the beads were then saturated for 30 minutes in PBS BSA 0.1% and then incubated for 1 h at 4° C. with equal amounts of cell lysate (H9 or Hela-IN) prealably lysed for 30 min on ice in Lysis buffer (Tris 20 mM, pH 7.2, NaCl 400 mM, EDTA 1 mM, DTT 1 mM, Protease inhibitors EDTA free (Roche Diagnostics) and sonicated twice for 5 sec. at 20%. Beads were washed once in Lysis buffer, and twice in PBS. They were finally resuspended in Laemli blue, migrated on 15% SDS-PAGE gels and analysed by Western Blotting.

HIV-1 RT [6] = target: T7, HIV-1 RT (Human immunodeficiency virus type 1 group M subtype B, UniProt P12497); assay: RT pull-down with peptide-CNBr Sepharose beads, H9 cell lysates; assay type: binding; details: Western blotting
T7 construct: asymmetric heterodimer that consists of two subunits, p66 and p51; expressed in transfected cells; host or cells: H9 cells (ATCC HTB-176) stably transfected with pNL4.3 V-R+
Procedure: For RT pull down experiments, PAW (SEQ ID NO: 18) was incubated with 500 μl of activated CNBr-activated Sepharose 4B beads at 4° C. overnight. After centrifugation, supernatants were removed and the beads were incubated with Glycine pH.8.0 for 2 hrs at 4° C. with gentle stirring. The beads were then washed with 0.1 M sodium acetate buffer (pH 4.0), then 0.5 M Bicarbonate buffer, and finally in PBS, three times each. The peptide bound to the beads were then saturated for 30 min in PBS/BSA 0.1% and then incubated for 1 h at 4° C. with equal amounts of H9 cells lysed for […] on ice in Lysis buffer (Tris 20 mM, pH 7.2, NaCl 400 mM, EDTA 1 mM, DTT 1 mM, Protease inhibitors EDTA free) and sonicated 2×5 sec. at 20%. Beads were washed with Lysis buffer then twice with PBS and the bound proteins were finally separated on 15% SDS-PAGE gel and analyzed by Western Blotting using monoclonal 8C4 anti-HIV-1 RT antibody.

GTKWLTEWIPLTAEAE-NH2 [PAW]
toxic effect [1]: without any toxic effect
entry of free peptide into cells (HeLa cells): not able to enter cells alone
koff (HIV-1 RT [2]): 1.42 ± 0.007 s⁻¹

GTKWLTEWIPLTAEAEC-FITC [PAW-FITC]
Ki (HIV-1 RT [3]; Dixon plot, mean of three separate experiments, read-out: Ki (μM), inhibition of polymerase activity of HIV-1 RT): 2.7 ± 0.7 µM
reduction of efficiency (higher Ki) relative to PAW (HIV-1 RT [3]; relative to PAW): 3.8 fold
time to enter cells (HeLa cells; complexed with Pep-1 at 1/10 molar ratio): less than 1 h
entry of free peptide into cells (HeLa cells): poorly enters
Kd (heterodimeric RT): 33 ± 10 nM
lower Kd of labelled FITC-PAW over unlabelled peptide (RT:p/t): 5.6 fold
Kd (RT:p/t; FITC-PAW fluorescence quenching, read-out: Kd, FITC-PAW binding to RT first incubated with DNA/DNA p/t): 7.1 ± 2.8 nM
increase of affinity for RT in the presence of p/t (RT:p/t; relative to RT without p/t): 5 fold
p51 dimeric and associated to PAW (HIV-1 p51): 4.6%
IC50 (HIV-1 integrase [4]): 10000 nM

Pep-7: decapeptide (SEQ ID NO: 32) mimicking p66/p51 interface that prevents reverse transcriptase-dimerization (KETWETWWTE; Pep-7 ; described in Morris et al., 1999, JBC, 274, 24941-24946)
interaction with IN in pull-down (HIV-1 integrase [5]): does not bind IN

GTKALTAVIPLTEEAE [Peptide P8]
Ki (HIV-1 RT [3]): 57 ± 19 µM
reduction of efficiency of the peptide in comparison to P1 (HIV-1 RT [3]; relative to P1): 8 fold
stable complex with RT, retention of RT on beads (HIV-1 RT [6]): no RT was associated
entry of free peptide into cells (HeLa cells): not able to enter cells alone
